Source: patent US10435399B2, “HDAC6 inhibitory heterocyclic compound” (TAKEDA PHARMACEUTICAL COMPANY LIMITED, priority 2017, dated 2019)

The compounds below were run against T1, HDAC6 enzyme (Homo sapiens, UniProt Q9UBN7) (assay: HDAC6 enzyme inhibitory activity (HDAC-Glo I/II Assay kit)). Settings: 10 μM; wells without enzyme = 100% inhibition.
T1 construct: transducing full length HDAC6 gene into Sf-9 insect cells; GST; purchased SignalChem; host or cells: Sf-9 insect cells
T1 sequence (Q9UBN7 1-1215): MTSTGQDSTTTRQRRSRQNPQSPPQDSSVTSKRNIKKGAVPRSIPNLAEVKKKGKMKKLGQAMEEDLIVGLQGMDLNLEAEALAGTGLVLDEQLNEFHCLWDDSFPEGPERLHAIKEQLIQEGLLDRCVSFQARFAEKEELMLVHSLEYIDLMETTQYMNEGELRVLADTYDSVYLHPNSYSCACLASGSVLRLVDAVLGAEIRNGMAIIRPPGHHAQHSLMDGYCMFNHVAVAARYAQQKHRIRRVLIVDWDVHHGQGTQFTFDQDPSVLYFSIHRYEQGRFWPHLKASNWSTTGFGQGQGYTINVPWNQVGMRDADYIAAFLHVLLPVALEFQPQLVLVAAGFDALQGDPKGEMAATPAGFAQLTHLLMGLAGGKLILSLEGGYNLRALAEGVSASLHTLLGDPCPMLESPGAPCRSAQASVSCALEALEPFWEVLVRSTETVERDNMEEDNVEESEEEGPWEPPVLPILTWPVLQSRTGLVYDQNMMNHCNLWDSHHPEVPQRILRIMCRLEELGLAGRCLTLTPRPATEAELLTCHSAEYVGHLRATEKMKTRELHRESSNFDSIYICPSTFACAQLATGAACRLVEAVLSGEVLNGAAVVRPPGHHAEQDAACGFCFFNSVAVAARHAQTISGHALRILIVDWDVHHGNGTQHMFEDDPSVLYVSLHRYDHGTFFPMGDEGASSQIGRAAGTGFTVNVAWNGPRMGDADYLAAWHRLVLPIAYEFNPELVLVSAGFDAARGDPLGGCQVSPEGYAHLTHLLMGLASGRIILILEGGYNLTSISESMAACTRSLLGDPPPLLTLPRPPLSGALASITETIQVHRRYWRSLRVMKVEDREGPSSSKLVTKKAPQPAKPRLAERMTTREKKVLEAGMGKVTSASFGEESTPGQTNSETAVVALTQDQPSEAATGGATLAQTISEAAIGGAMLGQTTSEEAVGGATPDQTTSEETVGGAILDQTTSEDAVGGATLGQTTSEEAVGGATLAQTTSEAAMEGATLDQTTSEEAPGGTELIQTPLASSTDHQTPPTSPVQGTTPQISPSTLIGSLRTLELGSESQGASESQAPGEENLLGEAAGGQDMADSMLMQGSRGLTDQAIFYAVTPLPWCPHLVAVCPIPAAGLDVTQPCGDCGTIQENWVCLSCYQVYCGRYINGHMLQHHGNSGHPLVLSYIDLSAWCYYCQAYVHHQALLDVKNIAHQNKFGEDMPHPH
Type: biochemical
How it was run: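 Full-length human HDAC6 (GST-purified, Sf-9 expressed) preincubated with compound 60 min at room temperature in Tris-HCl pH 7.5 buffer with MgCl2, KCl, NaCl, glutathione, Tween-20. HDAC-Glo I/II substrate-developer then added, 20 min room temperature, luminescence read. Inhibition relative to no-enzyme wells as 100%.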

HDAC6 inhibitory rate (%) (10 μM)	SMILES
100	O=C1c2cc(-c3nnc(C(F)F)o3)ccc2CN1N1CCC(F)(F)CC1c1ccccc1 (stereo not drawn) [Example 554, 6-(5-(difluoromethyl)-1,3,4-oxadiazol-2-yl)-2-(4,4-difluoro-2-phenylpiperidin-1-yl)isoindolin-1-one (optical isomer)]
100	O=C1c2cc(-c3nnc(C(F)F)o3)ccc2CN1N1CCC(F)(F)CC1c1ccccc1 (stereo not drawn) [Example 555, 6-(5-(difluoromethyl)-1,3,4-oxadiazol-2-yl)-2-(4,4-difluoro-2-phenylpiperidin-1-yl)isoindolin-1-one (optical isomer)]

Same assay, conditions: 10 μM; wells without enzyme = 100% inhibition; read-out: HDAC6 inhibitory rate (%) (10 μM)

SMILES	inhibition at 10 µM [%]
Cn1cc(C2=CCN(C(=O)OC(C)(C)C)CC2)c(N2Cc3ccc(-c4nnc(C(F)F)o4)cc3C2=O)n1 [Example 518, tert-butyl 4-(3-(6-(5-(difluoro-methyl)-1,3,4-oxadiazol-2-yl)-1-oxo-1,3-dihydro-2H-isoindol-2-yl)-1-methyl-1H-pyrazol-4-yl)-3,6-dihydro-pyridine-1(2H)-carboxylate]	99
Cn1cc(C2=CCC(NC(=O)OC(C)(C)C)CC2)c(N2Cc3ccc(-c4nnc(C(F)F)o4)cc3C2=O)n1 (stereo not drawn) [Example 519, tert-butyl (4-(3-(6-(5-(difluoromethyl)-1,3,4-oxadiazol-2-yl)-1-oxo-1,3-dihydro-2H-isoindol-2-yl)-1-methyl-1H-pyrazol-4-yl)cyclohex-3-en-1-yl)carbamate]	99
Cn1cc(C2CCN(C(=O)OC(C)(C)C)CC2)c(N2Cc3ccc(-c4nnc(C(F)F)o4)cc3C2=O)n1 [Example 522, tert-butyl 4-(3-(6-(5-(difluoromethyl)-1,3,4-oxadiazol-2-yl)-1-oxo-1,3-dihydro-2H-isoindol-2-yl)-1-methyl-1H-pyrazol-4-yl)piperidine-1-carboxylate]	99
Cn1cc(C2CCC(NC(=O)OC(C)(C)C)CC2)c(N2Cc3ccc(-c4nnc(C(F)F)o4)cc3C2=O)n1 (stereo not drawn) [Example 523, tert-butyl (4-(3-(6-(5-(difluoromethyl)-1,3,4-oxadiazol-2-yl)-1-oxo-1,3-dihydro-2H-isoindol-2-yl)-1-methyl-1H-pyrazol-4-yl)cyclohexyl)carbamate]	99
CC(C)(C)OC(=O)NC1CCC(c2cc(F)ccc2N2Cc3ccc(-c4nnc(C(F)F)o4)cc3C2=O)CC1 (stereo not drawn) [Example 525, tert-butyl (4-(2-(6-(5-(difluoromethyl)-1,3,4-oxadiazol-2-yl)-1-oxo-1,3-dihydro-2H-isoindol-2-yl)-5-fluorophenyl)cyclohexyl)carbamate]	100
Cn1cc(C2CCC(NC(=O)C(F)(F)C(F)(F)F)CC2)c(N2Cc3ccc(-c4nnc(C(F)F)o4)cc3C2=O)n1 (stereo not drawn) [Example 532, N-(4-(3-(6-(5-(difluoromethyl)-1,3,4-oxadiazol-2-yl)-1-oxo-1,3-dihydro-2H-isoindol-2-yl)-1-methyl-1H-pyrazol-4-yl)cyclohexyl)-2,2,3,3,3-pentafluoropropanamide]	99
O=C1c2cc(-c3nnc(C(F)F)o3)ccc2CN1c1ccc(F)cc1C1CCC(NC(=O)C(F)(F)C(F)(F)F)CC1 (stereo not drawn) [Example 534, N-(4-(2-(6-(5-(difluoromethyl)-1,3,4-oxadiazol-2-yl)-1-oxo-1,3-dihydro-2H-isoindol-2-yl)-5-fluorophenyl)cyclohexyl)-2,2,3,3,3-pentafluoropropanamide]	100
O=C1c2cc(-c3nnc(C(F)F)o3)cnc2CN1[C@@H]1CCCC[C@H]1n1nnc2ccccc21 [Example 537, 6-((1R,2R)-2-(1H-benzotriazol-1-yl)cyclohexyl)-3-(5-(difluoromethyl)-1,3,4-oxadiazol-2-yl)-6,7-dihydro-5H-pyrrolo[3,4-b]pyridin-5-one]	100
Cn1cc(C2CCN(CC(F)(F)C(F)(F)F)CC2)c(N2Cc3ccc(-c4nnc(C(F)F)o4)cc3C2=O)n1 [Example 550, 6-(5-(difluoromethyl)-1,3,4-oxadiazol-2-yl)-2-(1-methyl-4-(1-(2,2,3,3,3-pentafluoropropyl)piperidin-4-yl)-1H-pyrazol-3-yl)isoindolin-1-one]	99
Cn1cc(C2CCC(NCC(F)(F)C(F)(F)F)CC2)c(N2Cc3ccc(-c4nnc(C(F)F)o4)cc3C2=O)n1 (stereo not drawn) [Example 557, 6-(5-(difluoromethyl)-1,3,4-oxadiazol-2-yl)-2-(1-methyl-4-(4-((2,2,3,3,3-pentafluoropropyl)amino)cyclohexyl)-1H-pyrazol-3-yl)isoindolin-1-one]	99

The remaining lines, values ahead:

inhibition at 10 µM [%]	SMILES
99	CC(C)(C)OC(=O)NC1CC=C(c2cc(F)ccc2N2Cc3ccc(-c4nnc(C(F)F)o4)cc3C2=O)CC1 (stereo not drawn) [Example 520, tert-butyl (4-(2-(6-(5-(difluoromethyl)-1,3,4-oxadiazol-2-yl)-1-oxo-1,3-dihydro-2H-isoindol-2-yl)-5-fluorophenyl)cyclohex-3-en-1-yl)carbamate]
99	O=C1c2cc(-c3nnc(C(F)F)o3)ccc2CN1[C@@H]1CCCC[C@H]1Nc1ccccn1 [Example 521, 6-(5-(difluoromethyl)-1,3,4-oxadiazol-2-yl)-2-((1R,2R)-2-(pyridin-2-ylamino)cyclohexyl)isoindolin-1-one]
99	CC(C)(C)OC(=O)N1CCC(c2cc(F)ccc2N2Cc3ccc(-c4nnc(C(F)F)o4)cc3C2=O)CC1 [Example 524, tert-butyl 4-(2-(6-(5-(difluoromethyl)-1,3,4-oxadiazol-2-yl)-1-oxo-1,3-dihydro-2H-isoindol-2-yl)-5-flluorophenyl)piperidine-1-carboxylate]
100	O=C1c2cc(-c3nnc(C(F)F)o3)ccc2CN1N1CCC(F)(F)CC1c1ccccc1 (stereo not drawn) [Example 530, 6-(5-(difluoromethyl)-1,3,4-oxadiazol-2-yl)-2-(4,4-difluoro-2-phenylpiperidin-1-yl)isoindolin-1-one]
98	O=C1c2cc(-c3nnc(C(F)F)o3)ccc2CN1c1ccc(F)cc1C1CCN(C(=O)C(F)(F)C(F)(F)F)CC1 [Example 533, 6-(5-(difluoromethyl)-1,3,4-oxadiazol-2-yl)-2-(4-fluoro-2-(1-(2,2,3,3,3-pentafluoropropanoyl)piperidin-4-yl)phenyl)isoindolin-1-one]
100	O=C1c2cc(-c3nnc(C(F)F)o3)ccc2CN1[C@@H]1CCCC[C@H]1n1nnc2ccccc21 [Example 536, 2-((1R,2R)-2-(1H-benzotriazol-1-yl)cyclohexyl)-6-(5-(difluoromethyl)-1,3,4-oxadiazol-2-yl)isoindolin-1-one]
100	O=C1c2cc(-c3nnc(C(F)F)o3)ccc2CN1[C@@H]1CCCC[C@H]1c1nnc2ccccn12 [Example 547, 6-(5-(difluoromethyl)-1,3,4-oxadiazol-2-yl)-2-((1R,2R)-2-([1,2,4]triazolo[4,3-a]pyridin-3-yl)cyclohexyl)isoindolin-1-one]
100	O=C1c2cc(-c3nnc(C(F)F)o3)ccc2CN1N1CCCC1c1cccc(F)c1 (stereo not drawn) [Example 553, 6-(5-(difluoromethyl)-1,3,4-oxadiazol-2-yl)-2-(2-(3-fluorophenyl)pyrrolidin-1-yl)isoindolin-1-one]

Same assay, conditions: read-out: HDAC6 inhibitory rate (%) (10 μM)

SMILES	inhibition at 10 µM [%]
O=C1c2cc(-c3nnc(C(F)F)o3)ccc2CN1[C@@H]1CCCC[C@H]1N1CC(F)(F)C(F)(F)C(F)(F)C1 [Example 531, 6-(5-(difluoromethyl)-1,3,4-oxadiazol-2-yl)-2-((1R,2R)-2-(3,3,4,4,5,5-hexafluoropiperidin-1-yl)cyclohexyl)isoindolin-1-one]	100
